# Source: patent publication US9353072B2, “Antimicrobial substituted thiazoles and methods of use” (Purdue Research Foundation, priority 2012, dated 2016)
# Read-outs that look alike come from different tables or passages of the source.
# Key:
# [1] = tested on: NRS119; experiment: MIC/MBC broth microdilution, NRS119; assay type: cell-based; details: Staphylococcus aureus
# Method: (§1) Determination of minimum inhibitory concentration (MIC). The MICs of the lead thiazole compound (compound 1a) and nine derivatives tested against all 18 MRSA strains were determined, in triplicate samples, using the broth microdilution method in accordance with the recommendations contained in the CLSI guidelines.
# [2] = tested on: NRS107; experiment: MIC/MBC broth microdilution, NRS107; assay type: cell-based; details: Staphylococcus aureus; for MBC: Table 8, read-out: MBC; for MIC: Table 8, read-out: MIC
# Method: as §1
# [3] = tested on: MRSA ATCC 700699 (NRS1, VISA); experiment: MIC/MBC broth microdilution, NRS1 (ATCC 700699); assay type: cell-based; details: Staphylococcus aureus
# Method: as §1
# [4] = tested on: MRSA USA500 (NRS385); experiment: MIC/MBC broth microdilution, NRS385 (USA500); assay type: cell-based; details: Staphylococcus aureus, Table 8, NRS385; for MBC: read-out: MBC; for MIC: read-out: MIC
# Method: as §1
# [5] = tested on: VRSA (VRS10); experiment: MIC/MBC broth microdilution, VRSA (VRS10); assay type: cell-based, Staphylococcus aureus; details: Staphylococcus aureus; for MBC: read-out: Minimum Bactericidal Concentration; for MIC: read-out: Minimum Inhibitory Concentration
# Method: as §1
# [6] = tested on: MRSA NRS384 (USA300); experiment: MIC/MBC broth microdilution, NRS384 (USA300); assay type: cell-based; details: Staphylococcus aureus; for MBC: read-out: MBC
# Method: as §1
# [7] = tested on: MRSA USA400 (NRS123); experiment: MIC/MBC broth microdilution, NRS123 (USA400); assay type: cell-based; details: Staphylococcus aureus, Table 8, NRS123; for MBC: read-out: MBC; for MIC: read-out: MIC
# Method: as §1
# [8] = tested on: VISA HIP07256 (NRS19); experiment: MIC/MBC broth microdilution, NRS19 (VISA HIP07256); assay type: cell-based; details: Staphylococcus aureus, Table 8, NRS19 (VISA); for MBC: read-out: MBC; for MIC: read-out: MIC
# Method: as §1
# [9] = tested on: NRS194; experiment: MIC/MBC broth microdilution, NRS194; assay type: cell-based; details: Staphylococcus aureus; for MBC: Table 8, read-out: MBC; for MIC: Table 8, read-out: MIC
# Method: as §1
# [10] = tested on: VISA LIM 3 (NRS37); experiment: MIC/MBC broth microdilution, NRS37 (VISA LIM 3); assay type: cell-based; details: Staphylococcus aureus, Table 8, NRS37 (VISA); for MBC: read-out: MBC; for MIC: read-out: MIC
# Method: as §1
# [11] = tested on: MRSA ATCC 43300; experiment: MIC/MBC broth microdilution, MRSA ATCC 43300; assay type: cell-based, Staphylococcus aureus; details: Staphylococcus aureus
# Method: as §1
# [12] = NRS 119 / VISA, Table 7, VISA (NRS119), read-out: Minimum Bactericidal Concentration
# [13] = NRS 119 / VISA, Table 7, VISA (NRS119), read-out: Minimum Inhibitory Concentration
# [14] = Table 7, VISA (NRS1), read-out: Minimum Bactericidal Concentration
# [15] = Table 7, VISA (NRS1), read-out: Minimum Inhibitory Concentration
# [16] = Table 8, NRS1 (VISA), read-out: MBC
# [17] = Table 8, NRS1 (VISA), triplicates, 20 hours, read-out: MIC
# [18] = Table 6, MRSA ATCC 43300, 128 μM down to 1.0 μM, 20 hours, read-out: MIC
# [19] = Table 6, MRSA ATCC 43300, plating on TSA, 20 hour incubation, read-out: MBC
# [20] = Table 7, MRSA (ATCC 43300), read-out: Minimum Bactericidal Concentration
# [21] = Table 7, MRSA (ATCC 43300), read-out: Minimum Inhibitory Concentration
# [22] = Table 8, ATCC 43300, read-out: MBC
# [23] = Table 8, ATCC 43300, read-out: MIC
# [24] = read-out: Minimum Bactericidal Concentration
# [25] = read-out: Minimum Inhibitory Concentration
SMILES,"MIC ([1]; Table 8, NRS119, read-out: MIC) [µM]",MIC [2] [µM],"MIC [3, 17] [µM]",MIC [4] [µM],"MIC ([6]; Table 8, NRS384, read-out: MIC) [µM]",MIC [7] [µM],MIC [8] [µM],MIC [9] [µM],MIC [10] [µM],"MIC [11, 18] [µM]","MIC [11, 23] [µM]","MBC ([1]; Table 8, NRS119, read-out: MBC) [µM]",MBC [2] [µM],"MBC [3, 16] [µM]",MBC [4] [µM],"MBC ([6]; Table 8, NRS384) [µM]",MBC [7] [µM],MBC [8] [µM],MBC [9] [µM],MBC [10] [µM],further results
C/C(=N/NC(=N)N)c1sc(-c2ccc(-c3cccc4ccccc34)cc2)nc1C [Compound M14],4,4,4,4,4,4,4,4,4,4,4,4,4,4,8,4,4,4,4,4,"MBC [1, 12]: 16 µM; MIC [1, 13]: 4 µM; MBC [3, 14]: 4 µM; MIC [3, 15]: 2 µM; MBC ([5]; Table 7, VRSA (VRS10)): 8 µM; MIC ([5]; Table 7, VRSA (VRS10)): 8 µM; MBC [11, 19]: 8 µM; MBC [11, 20]: 16 µM; MIC [11, 21]: 8 µM; MBC [11, 22]: 4 µM"
"CC(=O)c1ccc(-c2ccc(-c3nc(C)c(/C(C)=N\NC(=N)N)s3)cc2)cc1 [Compound M11, (Z)-2-(1-(2-(4′-acetyl-[1,1′-biphenyl]-4-yl)-4-methylthiazol-5-yl)ethylidene)hydrazinecarboximidamide]",16,16,16,16,16,16,32,16,8,4,16,32,32,16,16,16,16,32,16,16,"MBC [1, 12]: 32 µM; MIC [1, 13]: 16 µM; MBC [3, 14]: 32 µM; MIC [3, 15]: 8 µM; MBC ([5]; Table 7, VRSA (VRS10)): 16 µM; MIC ([5]; Table 7, VRSA (VRS10)): 16 µM; MBC [11, 19]: 8 µM; MBC [11, 20]: 8 µM; MIC [11, 21]: 8 µM; MBC [11, 22]: 16 µM"
"CCCCCCCC#Cc1ccc(-c2nc(C)c(/C(C)=N/NC(=N)N)s2)cc1 [Compound M17, (E)-2-(1-(4-methyl-2-(4-(non-1-yn-1-yl)phenyl)thiazol-5-yl)ethylidene) hydrazinecarboximidamide]",,,,,,,,,,,,,,,,,,,,,"MBC ([1]; NRS 119 / VISA, read-out: Minimum Bactericidal Concentration): 64 µM; MIC ([1]; NRS 119 / VISA, read-out: Minimum Inhibitory Concentration): 32 µM; MBC [3, 24]: 32 µM; MIC [3, 25]: 16 µM; MBC ([5]; VRSA): 64 µM; MIC ([5]; VRSA): 32 µM; MIC ([11]; 20 h): 32 µM; MBC [11, 24]: 64 µM; MIC [11, 25]: 32 µM"
"CC(=O)c1sc(-c2ccc(-c3ccc(F)cc3)cc2)nc1C [Compound M8, 1-(2-(4′-fluoro-[1,1′-biphenyl]-4-yl)-4-methylthiazol-5-yl)ethanone]",> 128,> 128,> 128,> 128,> 128,> 128,> 128,> 128,> 128,> 128,> 128,,,,,,,,,,
"CC(=O)c1ccc(-c2ccc(-c3nc(C)c(C(C)=O)s3)cc2)cc1 [Compound M9, 1-(4′-(5-acetyl-4-methylthiazol-2-yl)-[1,1′-biphenyl]-4-yl)ethanone]",> 128,> 128,> 128,> 128,> 128,> 128,> 128,> 128,> 128,> 128,> 128,,,,,,,,,,

# Continued, in another order:
"MIC ([1]; Table 8, NRS119, read-out: MIC) [µM]",MIC [2] [µM],"MIC [3, 17] [µM]",MIC [4] [µM],"MIC ([6]; Table 8, NRS384, read-out: MIC) [µM]",MIC [7] [µM],MIC [8] [µM],MIC [9] [µM],MIC [10] [µM],"MIC [11, 18] [µM]","MIC [11, 23] [µM]",SMILES,"MBC ([1]; Table 8, NRS119, read-out: MBC) [µM]",MBC [2] [µM],"MBC [3, 16] [µM]",MBC [4] [µM],"MBC ([6]; Table 8, NRS384) [µM]",MBC [7] [µM],MBC [8] [µM],MBC [9] [µM],MBC [10] [µM],further results
> 128,> 128,> 128,> 128,> 128,> 128,> 128,> 128,> 128,,> 128,"CCCCc1ccc(-c2nc(C)c(/C(N)=N\O)s2)cc1 [Compound R7, (E)-2-(4-butylphenyl)-N′-hydroxy-4-methylthiazole-5-carboximidamide]",,,,,,,,,,"MIC ([6]; Table 5, MRSA NRS384 (USA300), 128 μM down to 1.0 μM, 37° C., 19 hours, read-out: Minimum Inhibitory Concentration): > 128 µM"
4,4,2,4,4,4,4,4,4,,4,"CCCCC#Cc1ccc(-c2nc(C)c(/C(C)=N/NC(=N)N)s2)cc1 [Compound R1, (E)-2-(1-(2-(4-(hex-1-yn-1-yl)phenyl)-4-methylthiazol-5-yl)ethylidene)hydrazinecarboximidamide]",4,4,2,4,4,4,4,4,4,"MIC ([11]; Table 4, MRSA ATCC 43300, 64 μM down to 0.5 μM, 37° C., 19 hours, read-out: Minimum Inhibitory Concentration): 4 µM; MBC [11, 22]: 4 µM"
